Reference: patent publication US20100093645A1, “SMAC Peptidomimetics and the Uses Thereof” (priority 2004, published 2010)
Values joined by “and” are separate entries in the source; they are usually repeats but may differ in a detail not shown here. Equal values may be shown once. Read-outs that look alike come from different tables or passages of the source. Square brackets hold non-standard residues; d marks the D form. Peptide text beside a SMILES is read from it. * marks the point of attachment. 6FAM = O=C1OC2(c3ccc(O)cc3Oc3cc(O)ccc32)c2cc(C(=O)*)ccc21; Abu = CC[C@H](N)C(=O)O; NHPr = CCCN*

Columns and labels:
[1] = system: MDA-231 breast cancer cells; assay: Apoptosis by Annexin V-FITC/propidium iodide flow cytometry in MDA-231 cells, alone or with CDDP; type: cell-based, human; details: 42 hours
Description: Another experiment was carried out in which MDA-231 breast cancer cells in 6-well plates were treated with SH-97 and CDDP, alone or in combination, for 42 hours. Cells were collected and stained with Annexin V-FITC and propidium iodide. The fluorescence of individual cells was analyzed by flow cytometry. 25 and 50 μM CDDP induced about 30% and about 45%, respectively, of cancer cells to undergo apoptosis as compared to control cells (FIG. 8). Combination of 25 or 50 μM CDDP and 10 μM SH-97 induced about 50% and 90% apoptosis over control cells, respectively (FIG. 8). […] (FIG. 8).

PC-3 cells [2] = assay: Apoptosis by Annexin V-FITC staining in PC-3 cells, alone or with CDDP; type: cell-based, human
Description: […]. […] […]. The experiment used PC-3 cells which express high levels of XIAP and cIAP-1/2 proteins and cisplatin (CDDP) as the chemotherapeutic drug. CDDP is a DNA damaging agent and can effectively induce apoptosis in PC-3 cells and is also a clinically used chemotherapeutic drug for prostate cancer.
PC-3 cells were treated with CDDP, Smac peptides and peptidomimetics alone or in combination for 42 hours and apoptosis was analyzed by Annexin V-FITC staining. […] Combination of 25 μM CDDP and 10 μM or 25 μM SH-97 induced 29.3%±1.9% and 35.8%±0.4% apoptosis over control cells, respectively (FIG. 6A). […].
In a similar experiment, PC-3 cells were treated with the Smac peptidomimetic CJ-445 (Table 3) and CDDP as described above. Combination of 25 μM CDDP and 5 μM or 10 μM CJ-445 induced about 30% and about 35% apoptosis over control cells, respectively (FIG. 7).

[3] = molecular target: T1, human XIAP-BIR3 protein (residues 241-356) (Homo sapiens, UniProt P98170); assay: biochemical
Target sequence in this assay (P98170 241-356): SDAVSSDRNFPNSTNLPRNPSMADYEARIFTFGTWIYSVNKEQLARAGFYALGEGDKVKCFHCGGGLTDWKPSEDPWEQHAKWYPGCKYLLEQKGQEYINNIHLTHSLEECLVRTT

[4] = system: MDA-231 breast cancer cell line; assay: MTT cell viability assay in MDA-231 cells; type: cell-based; details: Homo sapiens, MDA-MB-231, 120 h, read-out: EC50 growth inhibition
Description: (§1) . The cells were then incubated at 37 C with 5% CO2 for 5 days, followed by detection of cell viability with the MTT assay. Untreated cells were used as 100% growth. […].

PC-3 cells [5] = assay: MTT cell viability assay in PC-3 cells; type: cell-based; details: Homo sapiens
Description: as §1

PC-3 cells [6] = assay: Clonogenic assay with X-ray radiation in PC-3 cells
[7] = molecular target: T1, human XIAP-BIR3 protein (residues 241-356); assay: Fluorescence polarization saturation (direct) binding of labeled Smac peptides; details: 5 nM labeled peptide, protein 0 to 40 μM, read-out: Kd value (dissociation constant) to XIAP-BIR3
[8] = molecular target: human XIAP-BIR3 protein (residues 241-356) with a His tag (human) (UniProt P98170); assay: fluorescence polarization, saturation; 5 nM peptide titrated with 0 to 40 µM protein
human XIAP-BIR3 protein (residues 241-356) with a His tag (human), sequence (P98170 241-356 limits assumed): as the sequence (P98170 241-356) above

[9] = molecular target: human XIAP-BIR3 protein (residues 241-356) with a His tag (human) (UniProt P98170); assay: fluorescence polarization, saturation; against S9F as reference
[10] = molecular target: human XIAP-BIR3 protein (residues 241-356) with a His tag (human) (UniProt P98170); assay: fluorescence polarization; 5 nM SM5F and 0.030 µM XIAP-BIR3
[11] = molecular target: human XIAP-BIR3 protein (residues 241-356) with a His tag (human) (UniProt P98170); assay: competitive fluorescence polarization, SM5F tracer; against S9 as reference
[12] = PC-3, MTT, read-out: EC50 growth inhibition
[13] = 10 μM compound + 25 μM CDDP, 42 hours

[NH2][Pt]([NH2])([Cl])[Cl] [CDDP, cisplatin, reference compound]
apoptosis as compared to control cells ([1]; 25 μM CDDP alone): about 30% | apoptosis as compared to control cells ([1]; 50 μM CDDP alone): about 45% | apoptosis as compared to control cells (PC-3 cells [2]; 25 μM CDDP alone, 42 hours): 12-15%

CC(C)[C@H](NC(=O)[C@H](C)N)C(=O)N1CCC[C@H]1C(=O)NCCc1c[nH]c2ccccc12 [CJ-376]
Ki [3]: 3.99 µM

Cc1ccc(CNC(=O)[C@@H]2CCCN2C(=O)[C@@H](NC(=O)[C@H](C)N)C(C)C)cc1 [CJ-409]
Ki [3]: 3.21 µM

Cc1cccc(CNC(=O)[C@@H]2CCCN2C(=O)[C@@H](NC(=O)[C@H](C)N)C(C)C)c1 [CJ-410]
Ki [3]: 1.19 µM

Cc1ccccc1CNC(=O)[C@@H]1CCCN1C(=O)[C@@H](NC(=O)[C@H](C)N)C(C)C [CJ-411]
Ki [3]: 0.54 µM

COc1ccc(CNC(=O)[C@@H]2CCCN2C(=O)[C@@H](NC(=O)[C@H](C)N)C(C)C)cc1 [CJ-412]
Ki [3]: 11.7 µM

COc1cccc(CNC(=O)[C@@H]2CCCN2C(=O)[C@@H](NC(=O)[C@H](C)N)C(C)C)c1 [CJ-413]
Ki [3]: 2.92 µM

COc1ccccc1CNC(=O)[C@@H]1CCCN1C(=O)[C@@H](NC(=O)[C@H](C)N)C(C)C [CJ-414]
Ki [3]: 3.88 µM

CCNC(=O)[C@@H]1CCCN1C(=O)[C@@H](NC(=O)[C@H](C)N)C(C)C [CJ-418] (H-Ala-Val-Pro-NHEt)
Ki [3]: 55.3 µM

CC(C)[C@H](NC(=O)[C@H](C)N)C(=O)N1CCC[C@H]1C(=O)NCc1ccc(Cl)cc1 [CJ-419]
Ki [3]: 0.97 µM

CC(C)[C@H](NC(=O)[C@H](C)N)C(=O)N1CCC[C@H]1C(=O)NCc1cccc(Cl)c1 [CJ-420]
Ki [3]: 1.42 µM

CC(C)[C@H](NC(=O)[C@H](C)N)C(=O)N1CCC[C@H]1C(=O)NCc1ccccc1Cl [CJ-421]
Ki [3]: 1.73 µM

CC(C)[C@H](NC(=O)[C@H](C)N)C(=O)N1CCC[C@H]1C(=O)NCc1ccc(O)cc1 [CJ-425]
Ki [3]: 1.34 µM

CC[C@H](N)C(=O)N[C@H](C(=O)N1CCC[C@H]1C(=O)NC(c1ccccc1)c1ccccc1)c1ccccc1 [CJ-444]
Ki [3]: 13.5 µM | EC50 ([4]; 5 days, MTT): 120 to 130 µM | EC50 (PC-3 cells [5]; [12]): 120 to 130 µM

CC[C@H](N)C(=O)N[C@H](C(=O)N1CCC[C@H]1C(=O)NC(c1ccccc1)c1ccccc1)C1CCCCC1.Cl [CJ-445]
apoptosis over control cells (PC-3 cells [2]; 5 μM compound + 25 μM CDDP, 42 hours): about 30% | apoptosis over control cells (PC-3 cells [2]; [13]): about 35% | sensitizing PC-3 cells to CDDP-induced apoptosis, compared with Smac8-C (PC-3 cells [2]; 10 μM compound vs 100 μM Smac8-C): as potent as 100 μM Smac8-C | Ki [3]: 1.13 µM | EC50 ([4]; 5 days, MTT): 120 to 130 µM | EC50 (PC-3 cells [5]; [12]): 120 to 130 µM

C[C@H](N)C(=O)N[C@H](C(=O)N1CCC[C@H]1C(=O)NC(c1ccccc1)c1ccccc1)c1ccccc1 [CJ-450]
Ki [3]: 10.4 µM | EC50 ([4]; 5 days, MTT): 120 to 130 µM | EC50 (PC-3 cells [5]; [12]): 120 to 130 µM

C[C@H](N)C(=O)N[C@H](C(=O)N1CCC[C@H]1C(=O)NC(c1ccccc1)c1ccccc1)C1CCCCC1 [CJ-451]
EC50 [4]: 120 to 130 µM | EC50 (PC-3 cells [5]; PC-3, read-out: EC50 growth inhibition): 120 to 130 µM

CNC(=O)[C@@H]1CCCN1C(=O)[C@@H](NC(=O)[C@H](C)N)C(C)C [CJ-452] (H-Ala-Val-Pro-NHMe)
Ki [3]: 80.9 µM

CCCNC(=O)[C@@H]1CCCN1C(=O)[C@@H](NC(=O)[C@H](C)N)C(C)C [CJ-453] (H-Ala-Val-Pro-NHPr)
Ki [3]: 49.2 µM

CC(C)[C@H](NC(=O)[C@H](C)N)C(=O)N1CCCC[C@H]1C(=O)NC(c1ccccc1)c1ccccc1 [CJ-458]
Ki [3]: 160 µM

C[C@H](N)C(=O)N[C@H](C(=O)N1CCC[C@@H]1C(=O)NC(c1ccccc1)c1ccccc1)C1CC1 [CJ-464-2]
Ki [3]: 3.54 µM

C[C@H](N)C(=O)N[C@H](C(=O)N1CCC[C@H]1C(=O)NC(c1ccccc1)c1ccccc1)C1CCCC1 [CJ-467]
Ki [3]: 0.37 µM

CC(C)[C@H](NC(=O)[C@H](C)N)C(=O)N1CC[C@H]1C(=O)NC(c1ccccc1)c1ccccc1 [CJ-469]
Ki [3]: 0.78 µM

C[C@H](N)C(=O)N[C@@H](CC1CCCCC1)C(=O)N1CCC[C@H]1C(=O)NC(c1ccccc1)c1ccccc1 [CJ-473]
Ki [3]: 0.56 µM

CC(C)[C@H](NC(=O)[C@H](C)N)C(=O)N1CCC[C@H]1C(=O)NCc1c[nH]c2ccccc12 [CJ-488]
Ki [3]: 41 µM

CC(C)[C@H](NC(=O)[C@H](C)N)C(=O)N1CCC[C@H]1C(=O)NCc1cccc2ccccc12 [CJ-489]
Ki [3]: 0.7 µM

CC(C)[C@H](NC(=O)[C@H](C)N)C(=O)N1CCC[C@H]1C(=O)NC(c1ccccc1)c1ccccc1 [Compound 11]
EC50 [4]: 120 to 130 µM

CC[C@H](N)C(=O)N[C@H](C(=O)N1CCC[C@H]1C(=O)NC(c1ccccc1)c1ccccc1)C(C)C [Compound 16]
apoptosis over control cells ([1]; 10 μM compound + 25 μM CDDP): about 50% | apoptosis over control cells ([1]; 10 μM compound + 50 μM CDDP): ~90% | apoptosis over control cells (PC-3 cells [2]; [13]): 29.3%±1.9% | apoptosis over control cells (PC-3 cells [2]; 25 μM compound + 25 μM CDDP, 42 hours): 35.8%±0.4% | apoptosis induction by compound alone (PC-3 cells [2]; alone, 42 hours, SH-97 up to 50 μM): did not induce significantly more apoptosis | radiosensitization compared with Smac8-C (PC-3 cells [6]; 10 μM SH-97 vs 100 μM Smac8-C, 6 and 8 Gy): more effective than 100 μM of the cell-permeable Smac peptide Smac8-C | reduction of colony formation as compared to radiation alone (PC-3 cells [6]; 6 Gy, 10 μM compound): more than 10 fold | reduction of colony formation as compared to radiation alone (PC-3 cells [6]; 6 Gy, 25 μM compound): more than 10 fold | reduction of colony formation as compared to radiation alone (PC-3 cells [6]; 8 Gy, 10 μM compound): 40 fold | reduction of colony formation as compared to radiation alone (PC-3 cells [6]; 8 Gy, 25 μM compound): 50 fold | effect on activity of X-ray radiation (PC-3 cells [6]; 10 and 25 μM SH-97, 100 μM Smac8-C): significantly increased the activity of the radiation | effect on colony formation by compound itself (PC-3 cells [6]; without radiation, 10 days): no significant effect | EC50 [4]: 120 to 130 µM

CC(C)[C@H](NC(=O)[C@H](C)N)C(=O)N1CCC[C@H]1CCc1ccccc1 [SH-64]
Ki [3]: > 200 µM

CC(C)[C@H](NC(=O)[C@H](C)N)C(=O)N1CCC[C@H]1CNCc1ccccc1 [SH-80]
Ki [3]: 25.7 µM

CC(C)[C@H](NC(=O)[C@H](C)N)C(=O)N1CCC[C@@H]1CNCc1ccccc1 [SH-81]
Ki [3]: > 200 µM

CC(C)[C@H](NC(=O)CN)C(=O)N1CCC[C@H]1CCCc1ccccc1 [SH-82]
Ki [3]: 3.22 µM

CC[C@H](N)C(=O)N[C@H](C(=O)N1CCC[C@H]1C(=O)N[C@@H](Cc1ccccc1)c1ccccc1)C(C)C [SH-98]
Ki [3]: 3.1 µM

CC[C@H](N)C(=O)N[C@H](C(=O)N1CCC[C@H]1C(=O)N[C@@H](c1ccccc1)c1ccc(CCCOC)cc1)C(C)C [SH-103]
Ki [3]: 0.1 µM

CC(C)[C@H](NC(=O)[C@H](C)N)C(=O)N1CCC[C@H]1COC(c1ccccc1)c1ccccc1 [SH-106]
Ki [3]: 5.47 µM

CC[C@H](N)C(=O)N[C@@H](CCCNC(=N)N)C(=O)N1CCC[C@H]1C(=O)N[C@@H](Cc1ccccc1)C(=O)N[C@@H](CCCCNC(=O)c1ccc2c(c1)C1(OC2=O)c2ccc(O)cc2Oc2cc(O)ccc21)C(N)=O [SM5F, AbuRPFK-FAM] (H-[Abu]RPFK(6FAM)-NH2; N-terminus and C-terminus assumed)
Kd [7]: 0.018 µM and 0.0179 µM

AVPIAQKS [Smac-8, reference compound]
potentiation of the activity of CDDP in inducing apoptosis (PC-3 cells [2]; negative controls with CDDP): unable to potentiate the activity of CDDP

AbuRPFK-FAM, termed SM5F (fluorescently labeled mutated 5-mer Smac peptide)
maximum binding [8]: 276 mP | fold higher binding affinity than S9F [9]: 10 fold | ratio of the Kd values between SM5F and S9F [9]: 7.2 fold | percent of tracer saturated [10]: 60%

unlabeled mutated Smac 5-mer peptide (SM5), AbuRPFK
ratio of the IC50 values for SM5 and S9 [11]: 6.7 fold
